Columns and labels:
Type in all cases: in vivo, mouse
IL-4 = test: Measurement of IL-4 expression level by ELISA; details: NC/Nga mice, injection or skin application for 4 weeks, serum and splenocyte, vs negative control
Protocol: (§1) Serum was prepared from blood of main artery. Lymphocytes extracted from spleen were cultured. Briefly, extracted spleen was homogenized, filtered through mesh and single cells was isolated. Red blood cells were lysed in RBC lysis buffer and the supernatant was removed by centrifugation. 1×10^6 cells were cultured in 24-well plate containing RPMI media (1 ml). The experiments were performed in media containing cells cultured for 3 days.
(§2) NC/Nga mice in which atopic dermatitis had been induced were treated with hirsutenone through an injection or skin application for 4 weeks. Blood and spleen were collected from mice and interleukin (IL)-4, IL-5, IL-10 and IL-13 expression level in serum and splenocyte were measured using ELISA. IL-4, IL-5 and IL-13 expression detected in groups of hirsutenone being injected or skin applied was much lower than those of negative control (FIG. 9a, FIG. 9b and FIG. 9c).

COX-2 [1] = test: Measurement of COX-2 expression level using western blotting; details: NC/Nga mice, injection or skin application for 4 weeks, epidermal cells
Protocol: (§3) Skin tissue containing epidermal cells was lysed and centrifuged using a centrifuge. The supernatant was electrophoresized on 15% SDS-PAGE (sodium dodecyl sulfate polyacrylamide gel electrophoresis). For analysis of COX-2 and iNOS, proteins separated on gel electrophoresis were transferred into a nitrocellulose membrane and sequentially incubated with a primary antibody (1:1000 in BSA, rabbit polyclonal anti-COX-2 antibody, rabbit polyclonal iNOS antibody; Chemicon, Calif., USA) and a secondary antibody (1:2000 in BSA, anti-goat IgG, anti-rabbit IgG; Chemicon, Calif., USA).
(§4) NC/Nga mice in which atopic dermatitis had been induced were treated with hirsutenone through an injection or skin application for 4 weeks and mice epidermal cells were collected. To investigate whether hirsutenone has a regulatory activity on immune responses, the expression levels of COX-2 and iNOS were detected using western blotting.

IL-5 = test: Measurement of IL-5 expression level by ELISA; details: NC/Nga mice, injection or skin application for 4 weeks, serum and splenocyte, vs negative control
Protocol: as §1, §2

COX-2 [2] = test: Measurement of COX-2 expression using real-time PCR; details: NC/Nga mice, injection or skin application for 4 weeks, epidermal cells
Protocol: (§5) The primers used in Real-time PCR are as follows.
(§6) Total RNA was extracted according to the following steps. Tissue was treated with 1 ml TRIZol reagent and mixed with 200 μl chloroform. After centrifugation at 12,000 rpm for 15 min at 4° C., the supernatant was transferred into a new tube and mixed with ½ vol. of isopropanol. The mixture was again centrifuged at 12,000 rpm for 15 min at 4° C. The supernatant was discarded and total RNA was dissolved in DEPC-water.
(§7) cDNA was prepared according to the following steps. The isolated total RNA was dissolved in 30 μl DEPC-DW and reverse transcription using 3 μg of total RNA as a template was performed in a reaction mixture (20 μl) containing 1 μl of reverse transcriptase, 2 μl of 10× buffer, 2 μl of 10 mM dNTP (dNTP mix), 1 μl of oligo dT primer, 0.5 μl of RNase inhibitor and 4 μl of 25 mM MgCl2.
(§8) Each 2 μl of cDNA prepared was amplified using PCR. PCR reaction was performed by 45 cycles of 1 min at 59° C. and 1 min at 94° C. Finally, the mixtures were incubated at 72° C. for 1 min for extension.
as §4, with “weeks and then mice epidermal” for “weeks and mice epidermal”, “detected using real-time PCR. […]” for “detected using western blotting.”

[3] = test system: mice in which atopic dermatitis had been induced; test: Naked-eye observation of atopic dermatitis in animal model
Source text: To examine treatment efficacy of hirsutenone on atopic dermatitis, the present inventors utilized an experimental animal model in which atopic dermatitis was induced by attachment of mite patch to the skin. Briefly, the patch containing a mite-derived ingredient as a human atopic dermatitis-inducing agent was applied to 5-old-week mice. The hairs of their back were partially removed and mite patch was attached. At 2-week post-application, skin damage equivalent to atopic dermatitis was observed. Mite patch was detached at 18 weeks.
In addition to NC/Nga mouse, BABL/c mouse was used as an animal model.
To examine treatment efficacy of hirsutenone on atopic dermatitis, mice in which atopic dermatitis had been induced were treated with hirsutenone through an injection or skin application for 4 weeks. Then, external skin morphology was estimated by naked-eye observation so as to determine whether a symptom of atopic dermatitis was relieved. Each group injected or applied with hirsutenone was compared to a negative control group into which hirsutenone was not administered, resulting in the improvement of a symptom of atopic dermatitis. […] FIG. 5d represents a positive control treated with dexamethasone. […] FIG. 5g represents the result of administration of plancol as positive control.
FIG. 6d represents a positive control treated with dexamethasone. […] FIG. 6g represents the result of administration of plancol as positive control.

iNOS [4] = test: Measurement of iNOS expression using real-time PCR; details: NC/Nga mice, injection or skin application for 4 weeks, epidermal cells
Protocol: as §5, §6, §7, §8
as §4, with “weeks and then mice epidermal” for “weeks and mice epidermal”, “detected using real-time PCR. […]” for “detected using western blotting.”

IgE = test: Measurement of IgE level by ELISA; details: NC/Nga mice, injection or skin application for 4 weeks, vs negative control
Protocol: as §1
NC/Nga mice in which atopic dermatitis had been induced were treated with hirsutenone through an injection or skin application for 4 weeks. Blood was collected from mice and IgE expression level was measured using ELISA.

IL-13 = test: Measurement of IL-13 expression level by ELISA; details: NC/Nga mice, injection or skin application for 4 weeks, serum and splenocyte, vs negative control
Protocol: as §1, §2

eosinophil = test: Eosinophil count in blood; details: NC/Nga mice, injection or skin application for 4 weeks, after vs before administration
Protocol: Mouse blood was collected into capillary tube and 30 μl of mouse whole blood was diluted 6-fold by addition of 150 μl saline. Eosinophils were counted using a Sysmex XE-2100 hematology analyzer. Slide glass smeared with peripheral blood was prepared and stained with Wright-Giemsa. Eosinophil count was carried out by differentially counting 200 leukocytes.
NC/Nga mice in which atopic dermatitis had been induced were treated with hirsutenone through an injection or skin application for 4 weeks. Blood was collected from mice before and after administration or application of hirsutenone, and then eosinophil count was measured.

iNOS [5] = test: Measurement of iNOS expression level using western blotting; details: NC/Nga mice, injection or skin application for 4 weeks, epidermal cells
Protocol: as §3, §4

In the case of `O=C(/C=C/CCc1ccc(O)c(O)c1)CCc1ccc(O)c(O)c1` [hirsutenone], the IL-4 expression level (IL-4) was “much lower”, the “COX-2 expression level (western blotting)” value (COX-2 [1]) was “reduced” and the IL-5 expression level (IL-5) was “much lower”. For the same compound, the “COX-2 expression level (real-time PCR)” value (COX-2 [2]) was “significantly decreased”, the “symptom of atopic dermatitis (naked-eye observation)” value (“symptom of atopic dermatitis” below) ([3]; BABL/c mice, 0.1% hirsutenone by injection, vs PBS negative control) was “much more relieved” and the “symptom of atopic dermatitis” value ([3]; BABL/c mice, 1% hirsutenone by injection, vs PBS negative control) was “much more relieved”. For the same compound, the “symptom of atopic dermatitis” value ([3]; BABL/c mice, 1% hirsutenone ointment applied to skin, vs composition without active ingredient) was “much more alleviated”, the “symptom of atopic dermatitis” value ([3]; NC/Nga mice, 0.1% hirsutenone by injection, 4 weeks, vs PBS negative control) was “much more improved” and the “symptom of atopic dermatitis” value ([3]; NC/Nga mice, 1% hirsutenone by injection, 4 weeks, vs PBS negative control) was “much more improved”. For the same compound, the “symptom of atopic dermatitis” value ([3]; NC/Nga mice, 1% hirsutenone ointment applied to skin, 4 weeks, vs composition without active ingredient) was “much more remarkably improved”, the “iNOS expression level (real-time PCR)” value (iNOS [4]) was “significantly decreased” and the “IgE expression level in blood” value (IgE) was “remarkably lower”. The IL-13 expression level (IL-13) was “much lower”, the “number of eosinophil in blood” value (eosinophil) was “more severely reduced” and the “iNOS expression level (western blotting)” value (iNOS [5]) was “reduced”.

Source: patent publication US8012486B2, “Composition for treating atopic dermatitis comprising hirsutenone as an active ingredient” (Chung-Ang University Industry Academic Cooperation …, priority 2009, dated 2011)
